Reference: patent US20250206734A1, “BICYCLIC HETEROCYCLES AS MRGPRX2 ANTAGONISTS” (Incyte Corporation, priority 2023, published 2025)

Key:
Format in all cases: cell-based
MRGPRX2 [1] = biological target: T1, MRGPRX2 (Homo sapiens, UniProt Q96LB1); assay: MRGPRX2 IP1 HTRF Assay; design: host or cells: CHO-K1; conditions: CHO-K1 cells stably expressing human MRGPRX2; IP1 accumulation; agonist Cortistatin 14 1 μM
T1 sequence (Q96LB1 1-330): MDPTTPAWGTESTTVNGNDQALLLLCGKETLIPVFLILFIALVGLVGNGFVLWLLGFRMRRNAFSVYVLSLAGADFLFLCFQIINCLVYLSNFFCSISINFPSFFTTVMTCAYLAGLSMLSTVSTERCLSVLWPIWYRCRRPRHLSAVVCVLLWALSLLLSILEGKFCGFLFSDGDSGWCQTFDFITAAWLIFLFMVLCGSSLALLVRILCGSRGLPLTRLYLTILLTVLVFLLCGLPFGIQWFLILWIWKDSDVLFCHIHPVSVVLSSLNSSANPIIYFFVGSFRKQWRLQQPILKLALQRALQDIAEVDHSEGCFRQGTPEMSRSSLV
Description: Example B: MRGPRX2 IP1 HTRF Assay
This assay measures compound inhibition of myo-Inositol 1 phosphate (IP1) accumulation in CHO-K1 cells. Chinese hamster ovary (CHO-K1) cells stably expressing human MRGPRX2 were purchased from GenScript (Piscataway, NJ).
For the HTRF IP1 determination, an IP-One GqKit (Perkin Elmer Cisbio, Waltham, MA), which includes all reagents and buffers in this protocol, was used. The cells were maintained in culture medium (Ham's F-12K) containing 10% (v/v) FBS, and 200 μg/mL Zeocin. For the assay, the cells were harvested and resuspended in culture medium with 2% FBS and without Zeocin, then were passed through a 40 μm filter. Cells were added at 20000 cells in a 5 μL/well to a 384-well white small volume cell culture plate (Greiner VWR, Radnor, PA) which contained 50 nL/well of test compound serially diluted at a selected concentration range in DMSO. 5 μL/well of prepared 2× Stimulation Buffer2 was then added to plates and was incubated at 37° C. with 5% CO2 for 1 h. 5 μL/well of agonist Cortistatin 14 (Bio-TechneR&D Systems, Minneapolis, MN) in 1× Stimulation Buffer 2, for a 1 μM final concentration, was then added to plates and incubated at 37° C. with 5% CO2 for 1 h. 6 μL/well of 1:20 diluted Detection Reagent Mix (d2 and Cryptate) was added to the plates and incubated for 1 h in the dark. Plates were read on the PHERAstar microplate reader (BMG Labtech Cary, NC) to determine the HTRF ratio of the acceptor and donor emission signals. The IP1 concentrations were calculated from a standard curve following the IP-One GQ kit instructions. Wells with DMSO only and wells with high concentration of reference antagonist were used as controls for normalization. Compound IC50 curves were globally fitted with 3- or 4-parameter Hill equation in a Genedata Screener (Genedata Basel, Switzerland).

MRGPRX2 [2] = biological target: T1, MRGPRX2; assay: MRGPRX2 β-Arrestin Assay; design: host or cells: PathHunter CHO-K1; conditions: PathHunter CHO-K1 MRGPRX2 β-Arrestin cell line; agonist Cortistatin 14 0.25 μM
Description: Example C: MRGPRX2 β-Arrestin Assay
This assay measures compound inhibition of β-Arrestin recruitment, which is part of the G protein-independent pathway that results from the ligand-activated GPCR phosphorylation by specific GPCR kinases. The PathHunter CHO-K1 MRPGRX2 B-Arrestin Cell line stably expressing ProLink tagged MRGPRX2 and Enzyme Acceptor Tagged B-Arrestin was purchased from Eurofins DiscoverX, (Fremont, CA).
The cells were maintained in culture medium from the Europhins DiscoverX Cell Culture Kit-107 which includes FBS, hygromycin B and G418. For the assay, the cells were harvested and were resuspended with Cell Plating Reagent 2 (Eurofins DiscoverX). Cells were added 10000 cells in 25 μL/well to a 384-well black cell culture plate (Greiner VWR, Radnor, PA) which contained 125 nL/well of compound at a selected serially diluted concentration range or DMSO. The plate was incubated at 37° C. with 5% CO2 for 1 h. 2 μL/well of agonist Cortistatin 14 was diluted in Protein Dilution Buffer, (Eurofins DiscoverX) for a final concentration of 0.25 μM, was added and the plate was incubated at 37° C. with 5% CO2 for 90 min. 14 μL/well of Detection Reagent Mix (PathHunter Detection Kit, Eurofins DiscoverX) was added to the plates and further incubated for 1 h in the dark. Plates were read on the PHERAstar microplate reader (BMG Labtech Cary, NC) measuring luminescence 0.1 to 1 s per well. Data was normalized using DMSO only wells and wells with high concentration of reference antagonist as controls. Compound IC50 curves were globally fitted with 3- or 4-parameter Hill equation in a Genedata Screener (Genedata Basel, Switzerland).

MRGPRX2 [3] = biological target: T1, MRGPRX2; assay: MRGPRX2 FLIPR Calcium Mobilization Assay; design: host or cells: CHO-K1; conditions: CHO-K1 cells stably expressing human MRGPRX2; Ca2+ release; agonist Cortistatin-14 at EC80
Experimental: Example A. MRGPRX2 FLIPR Calcium Mobilization Assay
Chinese hamster ovary (CHO-K1) cells stably expressing human MRGPRX2 were purchased from Genescript (Piscataway, NJ). The cells were maintained in culture medium (Ham's F-12K) containing 10% (v/v) FBS, 200 μg/mL Zeocin, 100 units/mL penicillin G and 100 μg/mL streptomycin (Life Technologies, Carlsbad, CA). For the assay, the cells were harvested and resuspended with culture medium without Zeocin before plating at 8000 cells per well in 20 μL in 384-well black clear bottom cell culture plates (VWR, Radnor, PA). After 24 hour culture at 37° C. and 5% CO2, the cells were loaded with 20 μL/well of calcium dye (FLIPR Calcium 6 Assay Kit, Molecular Devices, San Jose, CA) diluted in loading buffer (1× Hank's Balanced Salt Solution (HBSS), 5 mM probenecid, 20 mM 4-(2-hydroxyethyl)-1-piperazineethanesulfonic acid (HEPES), pH 7.4, VWR, Radnor, PA) followed with 45 min incubation at 37° C. and 40 min. at r.t. in the dark. Cells were then treated with the addition of 10 uL/well test compounds with a range of increasing concentrations diluted in the assay buffer (1×HBSS, 20 mM HEPES, pH 7.4, VWR, Radnor, PA) with FLIPR Penta (Molecular Devices. San Jose, CA) and incubated for 30 min. at r.t. Ca^2+ release was measured with FLIPR Penta with 10 s basal fluorescence measurement, then 12.5 μL of 5× agonist Cortistatin-14 (Tocris, Minneapolis, MN) at final concentration corresponding to the EC80 were added followed with continued fluorescence signal monitoring for an additional 110 s. The base line adjusted (median of first 10s base line) max value of the Relative Fluorescence Unit (RFU) was plotted against compound concentrations. Wells with no compound were served as the positive controls, and wells with high concentration of reference antagonist were used as negative controls. IC50 curves were globally fitted with 3- or 4-parameter Hill equation in a Genedata Screener (Genedata Basel, Switzerland).

Compound: O=c1ccc(C2CN(C(c3cc4ncc(Oc5ccc(F)cc5F)cc4cn3)C(F)(F)F)CCC2(F)F)c[nH]1 (stereo not shown) [Example 17, 5-(1-(1-(3-(2,4-Difluorophenoxy)-1,6-naphthyridin-7-yl)-2,2,2-trifluoroethyl)-4,4-difluoropiperidin-3-yl)pyridin-2(1H)-one]
- IC50 (MRGPRX2 [1]): 0.1 to 100 nM
- IC50 (MRGPRX2 [2]): 0.1 to 100 nM

Compound: CC1(CO)CCCN(C(c2cc3ncc(Oc4ccc(F)cc4F)cc3cn2)C(F)(F)F)C1 (stereo not shown) [Example 9, (1-(1-(3-(2,4-Difluorophenoxy)-1,6-naphthyridin-7-yl)-2,2,2-trifluoroethyl)-3-methylpiperidin-3-yl)methanol]
- IC50 (MRGPRX2 [2]): 0.1 to 100 nM
- IC50 (MRGPRX2 [3]): 0.1 to 100 nM

Compound: Fc1ccc(Oc2cnc3cc(C(N4CC(F)(F)CC4c4ccccc4)C(F)(F)F)ncc3c2)c(F)c1 (stereo not shown) [Example 18, 7-(1-(4,4-Difluoro-2-phenylpyrrolidin-1-yl)-2,2,2-trifluoroethyl)-3-(2,4-difluorophenoxy)-1,6-naphthyridine]
- IC50 (MRGPRX2 [1]): 0.1 to 100 nM
- IC50 (MRGPRX2 [2]): 0.1 to 100 nM

Compound: O=c1ccc(C2CCCN2C(c2cc3ncc(Oc4ccc(F)cc4F)cc3cn2)C(F)(F)F)c[nH]1 (stereo not shown) [Example 20, 5-(1-(1-(3-(2,4-Difluorophenoxy)-1,6-naphthyridin-7-yl)-2,2,2-trifluoroethyl)pyrrolidin-2-yl)pyridin-2(1H)-one]
- IC50 (MRGPRX2 [1]): 0.1 to 100 nM
- IC50 (MRGPRX2 [2]): 0.1 to 100 nM

Compound: Fc1ccc(Oc2cnc3cc(C(C(F)F)N4CCC(F)(F)CC4)ncc3c2)c(F)c1 (stereo not shown) [Example 22, 3-(2,4-Difluorophenoxy)-7-(1-(4,4-difluoropiperidin-1-yl)-2,2-difluoroethyl)-1,6-naphthyridine]
- IC50 (MRGPRX2 [2]): 0.1 to 100 nM
- IC50 (MRGPRX2 [3]): 0.1 to 100 nM

Compound: CC1(O)CCCN(C(c2cc3ncc(Oc4ccc(F)cc4F)cc3cn2)C(F)F)C1 (stereo not shown) [Example 21, 1-(1-(3-(2,4-Difluorophenoxy)-1,6-naphthyridin-7-yl)-2,2-difluoroethyl)-3-methylpiperidin-3-ol]
- IC50 (MRGPRX2 [2]): 0.1 to 100 nM
- IC50 (MRGPRX2 [3]): 0.1 to 100 nM

Compound: O=c1ccc(C2CN(C(c3cc4ncc(Nc5ccc(F)cc5F)cc4cn3)C(F)(F)F)CCC2(F)F)c[nH]1 (stereo not shown) [Example 26, 5-(1-(1-(3-((2,4-Difluorophenyl)amino)-1,6-naphthyridin-7-yl)-2,2,2-trifluoroethyl)-4,4-difluoropiperidin-3-yl)pyridin-2(1H)-one]
- IC50 (MRGPRX2 [2]): > 1000 nM

Compound: OC[C@@H]1CCCN1C(c1cc2ncc(Oc3ccc(F)cc3F)cc2cn1)C(F)(F)F (stereo partly drawn) [Example 13, ((2S)-1-(1-(3-(2,4-Difluorophenoxy)-1,6-naphthyridin-7-yl)-2,2,2-trifluoroethyl)pyrrolidin-2-yl)methanol]
- IC50 (MRGPRX2 [2]): 0.1 to 100 nM
- IC50 (MRGPRX2 [3]): 0.1 to 100 nM

Compound: Fc1ccc(Oc2cnc3cc(C(C(F)F)N4CCCC(c5ccn[nH]5)C4)ncc3c2)c(F)c1 (stereo not shown) [Example 23, 7-(1-(3-(1H-Pyrazol-5-yl)piperidin-1-yl)-2,2-difluoroethyl)-3-(2,4-difluorophenoxy)-1,6-naphthyridine]
- IC50 (MRGPRX2 [2]): 0.1 to 100 nM
- IC50 (MRGPRX2 [3]): 0.1 to 100 nM

Compound: O=c1ccc(C2CN(C(c3cc4ncc(Cc5ccccc5)cc4cn3)C(F)(F)F)CCC2(F)F)c[nH]1 (stereo not shown) [Example 27, 5-(1-(1-(3-Benzyl-1,6-naphthyridin-7-yl)-2,2,2-trifluoroethyl)-4,4-difluoropiperidin-3-yl)pyridin-2(1H)-one]
- IC50 (MRGPRX2 [2]): > 1000 nM

Compound: Fc1ccc(Oc2cnc3cc(C(C(F)F)N4CCCC4c4ccccc4)ncc3c2)c(F)c1 (stereo not shown) [Example 25, 7-(2,2-Difluoro-1-(2-phenylpyrrolidin-1-yl)ethyl)-3-(2,4-difluorophenoxy)-1,6-naphthyridine]
- IC50 (MRGPRX2 [2]): 0.1 to 100 nM
- IC50 (MRGPRX2 [3]): 0.1 to 100 nM

Compound: N#CC1CCCN(C(c2cc3ncc(Oc4ccc(F)cc4F)cc3cn2)C(F)(F)F)C1 (stereo not shown) [Example 10, 1-(1-(3-(2,4-Difluorophenoxy)-1,6-naphthyridin-7-yl)-2,2,2-trifluoroethyl)piperidine-3-carbonitrile]
- IC50 (MRGPRX2 [2]): 0.1 to 100 nM
- IC50 (MRGPRX2 [3]): 0.1 to 100 nM

Compound: CC(c1cc2ncc(Oc3ccc(F)cc3F)cc2cn1)N1CCCC(F)(F)C1 (stereo not shown) [Example 2, 3-(2,4-Difluorophenoxy)-7-(1-(3,3-difluoropiperidin-1-yl)ethyl)-1,6-naphthyridine]
- IC50 (MRGPRX2 [1]): 100 to 1000 nM
- IC50 (MRGPRX2 [3]): 0.1 to 100 nM

Compound: Fc1ccc(Oc2cnc3cc(C(N4CCC(F)(F)C4c4ccccc4)C(F)(F)F)ncc3c2)c(F)c1 (stereo not shown) [Example 19, 7-(1-(3,3-Difluoro-2-phenylpyrrolidin-1-yl)-2,2,2-trifluoroethyl)-3-(2,4-difluorophenoxy)-1,6-naphthyridine]
- IC50 (MRGPRX2 [1]): 0.1 to 100 nM
- IC50 (MRGPRX2 [2]): 0.1 to 100 nM

Compound: CC1(C)CN(C(c2cc3ncc(Oc4ccc(F)cc4F)cc3cn2)C(F)(F)F)CCO1 (stereo not shown) [Example 8, 4-(1-(3-(2,4-Difluorophenoxy)-1,6-naphthyridin-7-yl)-2,2,2-trifluoroethyl)-2,2-dimethylmorpholine]
- IC50 (MRGPRX2 [2]): 0.1 to 100 nM
- IC50 (MRGPRX2 [3]): 0.1 to 100 nM

Compound: NC(=O)[C@@H]1CCCN1C(c1cc2ncc(Oc3ccc(F)cc3F)cc2cn1)C(F)F (stereo partly drawn) [Example 24, (2S)-1-(1-(3-(2,4-Difluorophenoxy)-1,6-naphthyridin-7-yl)-2,2-difluoroethyl)pyrrolidine-2-carboxamide]
- IC50 (MRGPRX2 [2]): 0.1 to 100 nM
- IC50 (MRGPRX2 [3]): 0.1 to 100 nM

Compound: Fc1ccc(Oc2cnc3cc(C(N4CC5CCC4C5)C(F)(F)F)ncc3c2)c(F)c1 (stereo not shown) [Example 11, 7-(1-(2-Azabicyclo[2.2.1]heptan-2-yl)-2,2,2-trifluoroethyl)-3-(2,4-difluorophenoxy)-1,6-naphthyridine]
- IC50 (MRGPRX2 [2]): 100 to 1000 nM
